Measured values from patent publication US6737383B1, “Herbicidal oxadiazolidines” (priority 1999, dated 2004).

What was measured:
bedstraw = test: Test B pre/postemergence bedstraw; format: in vivo, Galium aparine
Outline: (§1)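 Test chemicals in a non-phytotoxic solvent mixture with surfactant were sprayed preemergence onto planted seeds and postemergence onto plants 2 to 18 cm tall (1- to 4-leaf stage). After twelve to sixteen days in a greenhouse, injury was visually rated against untreated controls from 0 (no effect) to 10 (complete control).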

cocklebur = test: Test B pre/postemergence cocklebur; format: in vivo, Xanthium strumarium
Outline: as §1

corn = test: Test B pre/postemergence corn; format: in vivo, Zea mays
Outline: as §1

crabgrass = test: Test B pre/postemergence crabgrass; format: in vivo, Digitaria sanguinalis
Outline: as §1

giant foxtail = test: Test B pre/postemergence giant foxtail; format: in vivo, Setaria faberii
Outline: as §1

morningglory = test: Test B pre/postemergence morningglory; format: in vivo, Ipomoea hederacea
Outline: as §1

pigweed = test: Test B pre/postemergence pigweed; format: in vivo, Amaranthus retroflexus
Outline: as §1

rape = test: Test B pre/postemergence rape; format: in vivo, Brassica napus
Outline: as §1

soybean = test: Test B pre/postemergence soybean; format: in vivo, Glycine max
Outline: as §1

velvetleaf = test: Test B pre/postemergence velvetleaf; format: in vivo, Abutilon theophrasti
Outline: as §1

wheat = test: Test B pre/postemergence wheat; format: in vivo, Triticum aestivum
Outline: as §1

wild oat = test: Test B pre/postemergence wild oat; format: in vivo, Avena fatua
Outline: as §1

purple nutsedge = test: Test B pre/postemergence purple nutsedge; format: in vivo, Cyperus rotundus
Outline: as §1

rice = test: Test B flood test rice; format: in vivo, Oryza sativa
Outline: (§2)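 Flood test on plants grown to the 2-leaf stage; treated plants kept in greenhouse twelve to sixteen days, then visually rated against controls on a 0 (no effect) to 10 (complete control) scale.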

smallflower flatsedge = test: Test B flood test smallflower flatsedge; format: in vivo, Cyperus difformis
Outline: as §2

duck salad = test: Test B flood test duck salad; format: in vivo, Heteranthera limosa
Outline: as §2

[1] = Postemergence, Rate 125 g/ha, scale of 0 to 10 where 0 is no effect and 10 is complete control
[2] = Preemergence, Rate 62 g/ha, scale of 0 to 10 where 0 is no effect and 10 is complete control
[3] = Preemergence, Rate 125 g/ha, 0 is no effect, 10 is complete control
[4] = Preemergence, Rate 250 g/ha, scale 0 to 10, 0 is no effect, 10 is complete control
[5] = Preemergence, Rate 500 g/ha, scale 0 to 10 (0 no effect, 10 complete control)
[6] = Rate 62 g/ha, Postemergence, scale of 0 to 10 where 0 is no effect and 10 is complete control
[7] = Rate 250 g/ha, Postemergence, scale 0 to 10, 0 is no effect, 10 is complete control
[8] = Rate 500 g/ha, Postemergence, scale 0 to 10
[9] = Rate 62 g/ha, headed Pre-emergence (flood test species), scale 0 to 10 (0 no effect, 10 complete control)
[10] = Rate 125 g/ha, Pre-emergence, flood test species, scale 0 to 10 where 0 is no effect and 10 is complete control
[11] = Rate 250 g/ha, Pre-emergence, flood-test species, scale 0 to 10, 0 is no effect, 10 is complete control
[12] = Rate 500 g/ha, headed Pre-emergence (flood test species), scale 0 to 10 (0 no effect, 10 complete control)

CCN(Cc1ccccc1)C(=O)n1oc(=O)n(C(C)C)c1=O [Compound 166]
Bedstraw plant response rating (bedstraw; [1]): 0 | Bedstraw plant response rating (bedstraw; [2]): 0 | Bedstraw plant response rating (0 to 10 scale) (bedstraw; [3]): 0 | Bedstraw plant response rating (bedstraw; [4]): 0 | Bedstraw plant response rating (bedstraw; [5]): 0 | Bedstraw plant response rating (bedstraw; [6]): 0 | Plant response rating, Bedstraw (bedstraw; [7]): 1 | Bedstraw plant response rating (bedstraw; [8]): 5 | Cocklebur plant response rating (cocklebur; [1]): 0 | Cocklebur plant response rating (cocklebur; [2]): 0 | Cocklebur plant response rating (0 to 10 scale) (cocklebur; [3]): 0 | Cocklebur plant response rating (cocklebur; [4]): 0 | Cocklebur plant response rating (cocklebur; [5]): 0 | Cocklebur plant response rating (cocklebur; [6]): 0 | Plant response rating, Cocklebur (cocklebur; [7]): 0 | Cocklebur plant response rating (cocklebur; [8]): 0 | Corn plant response rating (corn; [1]): 0 | Corn plant response rating (corn; [2]): 0 | Corn plant response rating (0 to 10 scale) (corn; [3]): 0 | Corn plant response rating (corn; [4]): 0 | Corn plant response rating (corn; [5]): 0 | Corn plant response rating (corn; [6]): 0 | Plant response rating, Corn (corn; [7]): 0 | Corn plant response rating (corn; [8]): 0 | Crabgrass plant response rating (crabgrass; [1]): 1 | Crabgrass plant response rating (crabgrass; [2]): 4 | Crabgrass plant response rating (0 to 10 scale) (crabgrass; [3]): 4 | Crabgrass plant response rating (crabgrass; [4]): 7 | Crabgrass plant response rating (crabgrass; [5]): 7 | Crabgrass plant response rating (crabgrass; [6]): 0 | Plant response rating, Crabgrass (crabgrass; [7]): 3 | Crabgrass plant response rating (crabgrass; [8]): 4 | Giant foxtail plant response rating (giant foxtail; [1]): 0 | Giant foxtail plant response rating (giant foxtail; [2]): 3 | Giant foxtail plant response rating (0 to 10 scale) (giant foxtail; [3]): 5 | Giant foxtail plant response rating (giant foxtail; [4]): 5 | Giant foxtail plant response rating (giant foxtail; [5]): 7 | Giant foxtail plant response rating (giant foxtail; [6]): 0 | Plant response rating, Giant foxtail (giant foxtail; [7]): 1 | Giant foxtail plant response rating (giant foxtail; [8]): 4 | Morningglory plant response rating (morningglory; [1]): 1 | Morningglory plant response rating (morningglory; [2]): 0 | Morningglory plant response rating (0 to 10 scale) (morningglory; [3]): 0 | Morningglory plant response rating (morningglory; [4]): 0 | Morningglory plant response rating (morningglory; [5]): 0 | Morningglory plant response rating (morningglory; [6]): 1 | Plant response rating, Morningglory (morningglory; [7]): 2 | Morningglory plant response rating (morningglory; [8]): 2 | Redroot pigweed plant response rating (pigweed; [1]): 0 | Redroot pigweed plant response rating (pigweed; [2]): 0 | Redroot pigweed plant response rating (0 to 10 scale) (pigweed; [3]): 0 | Redroot pigweed plant response rating (pigweed; [4]): 0 | Redroot pigweed plant response rating (pigweed; [5]): 0 | Redroot pigweed plant response rating (pigweed; [6]): 0 | Plant response rating, Redroot pigweed (pigweed; [7]): 2 | Redroot pigweed plant response rating (pigweed; [8]): 3 | Rape plant response rating (rape; [1]): 0 | Rape plant response rating (rape; [2]): 0 | Rape plant response rating (0 to 10 scale) (rape; [3]): 0 | Rape plant response rating (rape; [4]): 0 | Rape plant response rating (rape; [5]): 0 | Rape plant response rating (rape; [6]): 0 | Plant response rating, Rape (rape; [7]): 0 | Soybean plant response rating (soybean; [1]): 0 | Soybean plant response rating (soybean; [2]): 0 | Soybean plant response rating (0 to 10 scale) (soybean; [3]): 0 | Soybean plant response rating (soybean; [4]): 0 | Soybean plant response rating (soybean; [5]): 2 | Soybean plant response rating (soybean; [6]): 0 | Plant response rating, Soybean (soybean; [7]): 2 | Soybean plant response rating (soybean; [8]): 3 | Velvetleaf plant response rating (velvetleaf; [2]): 0 | Velvetleaf plant response rating (0 to 10 scale) (velvetleaf; [3]): 0 | Velvetleaf plant response rating (velvetleaf; [4]): 5 | Velvetleaf plant response rating (velvetleaf; [5]): 6 | Plant response rating, Velvetleaf (velvetleaf; [7]): 0 | Velvetleaf plant response rating (velvetleaf; [8]): 0 | Wheat plant response rating (wheat; [2]): 0 | Wheat plant response rating (0 to 10 scale) (wheat; [3]): 0 | Wheat plant response rating (wheat; [4]): 0 | Wheat plant response rating (wheat; [5]): 0 | Plant response rating, Wheat (wheat; [7]): 0 | Wheat plant response rating (wheat; [8]): 3 | Wild oats plant response rating (wild oat; [2]): 0 | Wild oats plant response rating (0 to 10 scale) (wild oat; [3]): 0 | Wild oats plant response rating (wild oat; [4]): 0 | Wild oats plant response rating (wild oat; [5]): 2 | Plant response rating, Wild oats (wild oat; [7]): 0 | Wild oats plant response rating (wild oat; [8]): 2 | Nutsedge plant response rating (purple nutsedge; [1]): 0 | Nutsedge plant response rating (0 to 10 scale) (purple nutsedge; [3]): 0 | Nutsedge plant response rating (purple nutsedge; [4]): 0 | Nutsedge plant response rating (purple nutsedge; [5]): 0 | Nutsedge plant response rating (purple nutsedge; [6]): 0 | Plant response rating, Nutsedge (purple nutsedge; [7]): 0 | Nutsedge plant response rating (purple nutsedge; [8]): 0 | Rice plant response rating (rice; [9]): 0 | Rice plant response rating (rice; [10]): 0 | Rice plant response rating (rice; [11]): 0 | Plant response rating, Rice (rice; [12]): 0 | S. Flatsedge plant response rating (smallflower flatsedge; [9]): 0 | S. Flatsedge plant response rating (smallflower flatsedge; [10]): 0 | S. Flatsedge plant response rating (smallflower flatsedge; [11]): 0 | S. Flatsedge plant response rating (smallflower flatsedge; Rate 500 g/ha, Pre-emergence, flood test species, scale 0 to 10 (0 no effect, 10 complete control)): 0 | Ducksalad plant response rating (duck salad; [9]): 0 | Ducksalad plant response rating (duck salad; [10]): 0 | Ducksalad plant response rating (duck salad; [11]): 0 | Plant response rating, Ducksalad (duck salad; [12]): 0
